The source of these data is US20210253575A1, “PYRROLIDINE AMINE COMPOUNDS FOR THE TREATMENT OF AUTOIMMUNE DISEASE” (Hoffmann-La Roche Inc., priority 2018, published 2021).

Molecules are shown by their SMILES.

The target of the experiment is T1, human TLR9 (Homo sapiens, UniProt Q9NR96).
T1 sequence (Q9NR96 26-1032): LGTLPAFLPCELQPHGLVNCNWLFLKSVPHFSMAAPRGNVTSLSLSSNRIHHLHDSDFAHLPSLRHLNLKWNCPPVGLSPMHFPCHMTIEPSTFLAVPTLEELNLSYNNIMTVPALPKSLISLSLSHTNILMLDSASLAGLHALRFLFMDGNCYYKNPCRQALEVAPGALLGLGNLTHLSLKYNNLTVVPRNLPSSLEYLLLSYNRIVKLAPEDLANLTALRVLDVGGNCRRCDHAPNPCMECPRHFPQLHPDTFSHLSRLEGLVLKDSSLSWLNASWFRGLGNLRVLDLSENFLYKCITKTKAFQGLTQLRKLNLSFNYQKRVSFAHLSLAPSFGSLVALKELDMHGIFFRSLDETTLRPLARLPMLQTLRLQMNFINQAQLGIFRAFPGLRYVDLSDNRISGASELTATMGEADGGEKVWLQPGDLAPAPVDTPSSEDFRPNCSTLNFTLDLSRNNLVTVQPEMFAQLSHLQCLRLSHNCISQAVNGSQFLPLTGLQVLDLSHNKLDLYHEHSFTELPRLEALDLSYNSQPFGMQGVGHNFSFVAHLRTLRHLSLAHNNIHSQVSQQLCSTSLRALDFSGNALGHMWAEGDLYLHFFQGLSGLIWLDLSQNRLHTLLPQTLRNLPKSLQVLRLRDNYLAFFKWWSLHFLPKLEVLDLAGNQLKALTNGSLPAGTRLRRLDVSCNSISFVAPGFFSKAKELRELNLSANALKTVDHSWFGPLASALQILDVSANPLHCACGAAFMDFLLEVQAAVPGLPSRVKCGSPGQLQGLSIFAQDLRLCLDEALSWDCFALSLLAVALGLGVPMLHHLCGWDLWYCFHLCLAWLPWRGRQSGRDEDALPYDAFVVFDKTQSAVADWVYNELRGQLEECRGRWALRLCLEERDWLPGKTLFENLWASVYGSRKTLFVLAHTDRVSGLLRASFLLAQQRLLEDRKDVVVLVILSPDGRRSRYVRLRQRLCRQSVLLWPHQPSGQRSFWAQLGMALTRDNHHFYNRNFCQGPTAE
In words: HEK293-Blue-hTLR-9 cells assay (SEAP reporter, ODN2006 stimulation). Format: cell-based. The conditions noted are these: HEK293-Blue-hTLR9 cells, ODN2006 ligand, 20 hrs incubation. Summed up:
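HEK293-Blue-hTLR9 cells with NF-κB/AP-1-driven SEAP reporter, stimulated with ODN2006 in presence of serially diluted compounds (1% DMSO) for 20 h at 37 °C. Supernatant SEAP measured with QUANTI-Blue after 2 h at 37 °C, absorbance 620–655 nm.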
With `N#Cc1ccc(N2C[C@H](CN3CCC(N4CCCCCC4)CC3)[C@@H](C(F)(F)F)C2)c2nccnc12` [Example 62, 8-[(3S,4R)-3-[[4-(Azepan-1-yl)-1-piperidyl]methyl]-4-(trifluoromethyl)pyrrolidin-1-yl]quinoxaline-5-carbonitrile], 409 nM corresponded to half-maximal inhibition (IC50).

On to `N#Cc1ccc(N2C[C@H](CN3C4CCC3CC(N)C4)[C@@H](C(F)(F)F)C2)c2nccnc12` (stereo partly drawn) [Example 63, 8-[(3S,4R)-3-[(3-amino-8-azabicyclo[3.2.1]octan-8-yl)methyl]-4-(trifluoromethyl)pyrrolidin-1-yl]quinoxaline-5-carbonitrile], for which the IC50 (as a rule, the concentration that gives 50% inhibition) came to 294 nM.

`N#Cc1ccc(N2C[C@H](CN3CCC(N)C(F)(F)C3)[C@@H](C(F)(F)F)C2)c2nccnc12` (stereo partly drawn) [Example 64, 8-[(3S,4R)-3-[(4-amino-3,3-difluoro-1-piperidyl)methyl]-4-(trifluoromethyl)pyrrolidin-1-yl]quinoxaline-5-carbonitrile] displayed an IC50 of 23100 nM.

In the case of `N#Cc1ccc(N2CC(CN3CCC4(CCCCN4)CC3)C3(CC3)C2)c2nccnc12` (stereo not drawn) [Example 65, 8-[7-(1,9-Diazaspiro[5.5]undecan-9-ylmethyl)-5-azaspiro[2.4]heptan-5-yl]quinoxaline-5-carbonitrile], the IC50 was 68 nM.

With `N#Cc1ccc(N2CC(CN3CCC4NCC4C3)C3(CC3)C2)c2nccnc12` (stereo not drawn) [Example 66, 8-[7-(3,7-Diazabicyclo[4.2.0]octan-3-ylmethyl)-5-azaspiro[2.4]heptan-5-yl]quinoxaline-5-carbonitrile], the IC50 was 123 nM.

Molecule `N#Cc1ccc(N2CC(CN3CCOC4(CCNCC4)C3)C3(CC3)C2)c2nccnc12` (stereo not drawn) [Example 67, 8-[7-(1-Oxa-4,9-diazaspiro[5.5]undecan-4-ylmethyl)-5-azaspiro[2.4]heptan-5-yl]quinoxaline-5-carbonitrile] came in with an IC50 of 869 nM.

Molecule `N#Cc1ccc(N2CC(CN3CCC(N)CC3)C3(CC3)C2)c2nccnc12` (stereo not drawn) [Example 68, 8-[7-[(4-Amino-1-piperidyl)methyl]-5-azaspiro[2.4]heptan-5-yl]quinoxaline-5-carbonitrile] returned an IC50 of 93 nM.

Regarding `N#Cc1ccc(N2C[C@H](CN3CCCC(C(N)=O)C3)[C@@H](C(F)(F)F)C2)c2nccnc12` (stereo partly drawn) [Example 69, 1-[[(3S,4R)-1-(S-cyanoquinoxalin-5-yl)-4-(trifluoromethyl)pyrrolidin-3-yl]methyl]piperidine-3-carboxamide], the IC50 came to 15700 nM.

On to `N#Cc1ccc(N2C[C@H](CN3CCC4(CC3)CNCCO4)[C@@H](C(F)(F)F)C2)c2nccnc12` [Example 70, 8-[(3S,4R)-3-(1-oxa-4,9-diazaspiro[5.5]undecan-9-ylmethyl)-4-(trifluoromethyl)pyrrolidin-1-yl]quinoxaline-5-carbonitrile], for which the midpoint of inhibition, the IC50, lay at 253 nM.

For the molecule `N#Cc1ccc(N2C[C@H](CNC3CCNCC3)[C@@H](C(F)(F)F)C2)c2nccnc12` [Example 71, 8-[(3S,4R)-3-[(4-piperidylamino)methyl]-4-(trifluoromethyl)pyrrolidin-1-yl]quinoxaline-5-carbonitrile], the midpoint of inhibition, the IC50, lay at 87 nM.

`C[C@H]1CN(C[C@H]2CN(c3ccc(C#N)c4nccnc34)C[C@@H]2C(F)(F)F)CC[C@H]1N` [Example 72, 8-[(3S,4R)-3-[[(3S,4R)-4-amino-3-methyl-1-piperidyl]methyl]-4-(trifluoromethyl)pyrrolidin-1-yl]quinoxaline-5-carbonitrile] registered an IC50 of 506 nM.

For the molecule `N#Cc1ccc(N2C[C@H](CN3CC4CCC(C3)C4N)[C@@H](C(F)(F)F)C2)c2nccnc12` (stereo partly drawn) [Example 73, 8-[(3S,4R)-3-[(8-amino-3-azabicyclo[3.2.1]octan-3-yl)methyl]-4-(trifluoromethyl)pyrrolidin-1-yl]quinoxaline-5-carbonitrile], the IC50 came to 1190 nM.

Regarding `N#Cc1ccc(N2C[C@H](CN3CCC(CN)CC3)[C@@H](C(F)(F)F)C2)c2nccnc12` [Example 74, 8-[(3S,4R)-3-[[4-(aminomethyl)-1-piperidyl]methyl]-4-(trifluoromethyl)pyrrolidin-1-yl]quinoxaline-5-carbonitrile], the IC50 was 325 nM.

With `CC1(CN)CCCN(C[C@H]2CN(c3ccc(C#N)c4nccnc34)C[C@@H]2C(F)(F)F)C1` (stereo partly drawn) [Example 75, 8-[(3S,4R)-3-[[3-(aminomethyl)-3-methyl-1-piperidyl]methyl]-4-(trifluoromethyl)pyrrolidin-1-yl]quinoxaline-5-carbonitrile], the IC50 turned out to be 767 nM.

Take `N#Cc1ccc(N2C[C@H](CN3CC4CNCC4C3)[C@@H](C(F)(F)F)C2)c2nccnc12` (stereo partly drawn) [Example 76, 8-[(3S,4R)-3-(2,3,3a,4,6,6a-hexahydro-1H-pyrrolo[3,4-c]pyrrol-5-ylmethyl)-4-(trifluoromethyl)pyrrolidin-1-yl]quinoxaline-5-carbonitrile]: half-maximal inhibition (IC50) required 485 nM.

On to `N#Cc1ccc(N2C[C@H](CN3CC4CCC3CN4)[C@@H](C(F)(F)F)C2)c2nccnc12` (stereo partly drawn) [Example 77, 8-[(3S,4R)-3-(2,5-diazabicyclo[2.2.2]octan-2-ylmethyl)-4-(trifluoromethyl)pyrrolidin-1-yl]quinoxaline-5-carbonitrile], for which the IC50 stood at 2340 nM.

For `N#Cc1ccc(N2C[C@H](CN3CCCC(F)(CN)C3)[C@@H](C(F)(F)F)C2)c2nccnc12` (stereo partly drawn) [Example 78, 8-[(3S,4R)-3-[[3-(aminomethyl)-3-fluoro-1-piperidyl]methyl]-4-(trifluoromethyl)pyrrolidin-1-yl]quinoxaline-5-carbonitrile], half-maximal inhibition (IC50) was put at 1920 nM.

`N#Cc1ccc(N2C[C@H](CN3CCC(CCN)CC3)[C@@H](C(F)(F)F)C2)c2nccnc12` [Example 79, 8-[(3S,4R)-3-[[4-(2-aminoethyl)-1-piperidyl]methyl]-4-(trifluoromethyl)pyrrolidin-1-yl]quinoxaline-5-carbonitrile]: the IC50 was found to be 248 nM.

The molecule `CN(C)C1CCN(C[C@H]2CN(c3ccc(C#N)c4nccnc34)C[C@@H]2C(F)(F)F)CC1` [Example 80, 8-[(3S,4R)-3-[[4-(dimethylamino)-1-piperidyl]methyl]-4-(trifluoromethyl)pyrrolidin-1-yl]quinoxaline-5-carbonitrile] displayed an IC50 of 706 nM.

On to `CNCC1CCN(C[C@H]2CN(c3ccc(C#N)c4nccnc34)C[C@@H]2C(F)(F)F)CC1` [Example 81, 8-[(3S,4R)-3-[[4-(methylaminomethyl)-1-piperidyl]methyl]-4-(trifluoromethyl)pyrrolidin-1-yl]quinoxaline-5-carbonitrile], for which inhibition was half-maximal at 218 nM (IC50).

Regarding `CN(C)C[C@@H]1CCN(C[C@H]2CN(c3ccc(C#N)c4nccnc34)C[C@@H]2C(F)(F)F)C1` [Example 82, 8-[(3S,4R)-3-[[(3S)-3-[(dimethylamino)methyl]pyrrolidin-1-yl]methyl]-4-(trifluoromethyl)pyrrolidin-1-yl]quinoxaline-5-carbonitrile], the IC50 worked out at 304 nM.
